The molecules below were run against Procathepsin L (Homo sapiens, UniProt P07711) (assay: FRET-based enzymatic assay).
Procathepsin L, sequence (P07711 whole entry): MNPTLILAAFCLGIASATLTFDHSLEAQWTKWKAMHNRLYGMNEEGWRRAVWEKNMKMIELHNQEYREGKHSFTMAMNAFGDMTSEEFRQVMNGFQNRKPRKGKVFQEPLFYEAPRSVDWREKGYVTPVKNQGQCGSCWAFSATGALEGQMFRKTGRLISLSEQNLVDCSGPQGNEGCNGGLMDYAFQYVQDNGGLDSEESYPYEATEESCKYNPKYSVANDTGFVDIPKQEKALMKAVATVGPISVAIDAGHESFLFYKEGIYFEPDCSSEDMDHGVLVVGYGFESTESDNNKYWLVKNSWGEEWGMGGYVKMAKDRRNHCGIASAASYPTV
For `CC(C)C[C@H](NC(=O)OCc1ccccc1)C(=O)N[C@@H](CC1CCNC1=O)C(O)S(=O)(=O)O` (stereo not given in full) [GC376], the IC50 was 0.99 nM. With `COc1cccc2[nH]c(C(=O)N[C@@H](CC(C)C)C(=O)N[C@@H](C[C@@H]3CCNC3=O)C(=O)CO)cc12` [WO2005113580-Ex-02] the IC50 was 146 nM. In the case of `CC(OC(C)(C)C)[C@H](NC(=O)OCc1ccccc1)C(=O)N[C@@H](CC1CCCCC1)C(=O)N[C@H](C=O)C[C@@H]1CCNC1=O` (stereo not given in full) [jm5b01461, Compound 45], the IC50 is reported as 1.2 nM.

These molecules were tested against Replicase polyprotein 1ab (Severe acute respiratory syndrome coronavirus 2, UniProt P0DTD1) (assay: FRET-based enzymatic assay).
Work on `CCCCC1CCC(OC(=O)N[C@@H](CC(C)C)C(=O)N[C@H](C=O)C[C@@H]2CCNC2=O)CC1` (stereo not given in full) [Advanced SARS-CoV-2 Inhibitor 6e] yielded an IC50 of 10 nM. With `C=CC(=O)N(c1ccc(-c2ccccc2)cc1)C(C(=O)N[C@@H](C)c1ccccc1)c1cccnc1` (stereo not given in full) [Jun9-51-3] the IC50 was > 20000 nM. Work on `O=C(NC1CCCC1)C(c1cccnc1)N(C(=O)CCl)c1ccc(-c2ccccc2)cc1` (stereo not given) [Jun9-55-1] yielded an IC50 of 300 nM. `O=C(NC1CCCCC1)C(c1cccnc1)N(C(=O)CCl)c1ccc(-c2ccccc2)cc1` (stereo not given) [Jun9-55-2] was tested, and the IC50 was 330 nM. `O=C(NC1CC1)C(c1cccnc1)N(C(=O)CCl)c1ccc(-c2ccccc2)cc1` (stereo not given) [Jun9-57-2] was tested, and the IC50 was 220 nM. `C[C@H](NC(=O)[C@@H](c1cnccn1)N(C(=O)CCl)c1ccc(-c2ccccc2)cc1)c1ccccc1` [Jun9-57-3R] showed an IC50 of 50 nM. `C[C@H](NC(=O)C(c1cnccn1)N(C(=O)CCl)c1ccc(-c2ccccc2)cc1)c1ccccc1` (stereo not given in full) [Jun9-59-1] showed an IC50 of 120 nM. `C[C@H](NC(=O)C(c1cccnc1)N(C(=O)CN=[N+]=[N-])c1ccc(-c2ccccc2)cc1)c1ccccc1` (stereo not given in full) [Jun9-61-1] was tested, and the IC50 was > 20000 nM. For `C[C@H](NC(=O)C(c1cccnc1)N(C(=O)CF)c1ccc(-c2ccccc2)cc1)c1ccccc1` (stereo not given in full) [Jun9-61-4], the IC50 was > 20000 nM. With `CCOC(=O)/C=C/C(=O)N(c1ccc(-c2ccccc2)cc1)C(C(=O)N[C@@H](C)c1ccccc1)c1cccnc1` (stereo not given in full) [Jun9-72-3] the IC50 was > 20000 nM. In the case of `C[C@H](NC(=O)C(c1cccnc1)N(C(=O)C(Cl)(Cl)Cl)c1ccc(-c2ccccc2)cc1)c1ccccc1` (stereo not given in full) [Jun9-72-4], the IC50 is reported as > 20000 nM. With `C[C@H](NC(=O)C(c1cccnc1)N(C(=O)C(C)(Cl)Cl)c1ccc(-c2ccccc2)cc1)c1ccccc1` (stereo not given in full) [Jun9-76-4] the IC50 was > 20000 nM. For `C[C@H](Cl)C(=O)N(c1ccc(-c2ccccc2)cc1)C(C(=O)N[C@@H](C)c1ccccc1)c1cccnc1` (stereo not given in full) [Jun9-77-1], the IC50 was > 20000 nM. `C[C@H](NC(=O)C(c1cccnc1)N(C(=O)C(F)(F)Cl)c1ccc(-c2ccccc2)cc1)c1ccccc1` (stereo not given in full) [Jun9-77-2] was tested, and the IC50 was > 20000 nM. `C[C@H](NC(=O)[C@@H](c1cccnc1)N(C(=O)C(Br)Br)c1ccc(-c2ccccc2)cc1)c1ccc(Br)cc1` [Jun9-89-2R] gave an IC50 of 80 nM. For `C=CC(=O)N(c1ccc(-c2ccccc2)cc1)C(C(=O)NCc1ccccc1)c1cccnc1` (stereo not given) [Jun10-15-2], the IC50 was > 20000 nM. For `C[C@H](NC(=O)C(c1cccnc1)N(C(=O)/C=C/CN(C)C)c1ccc(-c2ccccc2)cc1)c1ccccc1` (stereo not given in full) [Jun10-31-4], the IC50 was > 20000 nM.

Reference: BindingDB's records for doi:10.1021/jacs.1c08060 (The University of Arizona, 2021)
